≈ marks a conversion by molar mass, not a printed value. Read-outs that look alike come from different tables or passages of the source.
How the values were obtained:
Aspergillus fumigatus = test: minimum inhibitory concentration, Aspergillus fumigatus, broth microdilution; format: cell-based; conditions: 24 h, 37° C.
Method: (§1) Microorganism inocula was harvested from one to five day old cultures grown on Sabourand's dextrose agar. After two washes with sterile saline, the inocula were counted utilizing a hemacytometer and diluted or concentrated as required to 1×10^4 blastospores per ml. Sterile molten agar (at 50° C.) was inoculated, allowed to cool, and 10 mm diameter discs impregnated (from […] stock solutions) with each of the test compounds was placed on the surface of the agar. Zones of inhibition were measured after incubating the plates at 30° C. for 24-48 hours.
(§2) The compounds were then screened against three strains of three species of microorganisms: Candida albicans, Cryptococcus neoformans, and Aspergillus fumigatus using a conventional double dilution technique. All tests reported in Table II were done by broth microdilution in yeast nitrogen base-glucose using an inoculum of 1×10^4 blastospores per ml; the cultures were incubated at 37° C. for 24 hours, and the minimum concentration (in μg/ml) that prevents visible growth was recorded as the minimum inhibitory concentration.

in vitro = conditions: human, red blood cells
Candida albicans [1] = test: K+ release from fungal cells; format: cell-based; conditions: 3×10^7 fungal cells/ml, read-out: concentration for releasing 50% of the K+ from fungal cells
Cryptococcus neoformans = test: minimum inhibitory concentration, Cryptococcus neoformans, broth microdilution; format: cell-based; conditions: 24 h
Method: as §1, §2

Candida albicans [2] = test: minimum inhibitory concentration, Candida albicans, broth microdilution; format: cell-based; conditions: 24 h, 37° C.
Method: ^c minimum inhibitory concentration (see Example IV); three different
strains of Candida albicans were tested; all tests were done in broth
microdilution in yeast nitrogen baseglucose at 37° C. for 24 hours
the initial inoculum was 1 × 10^4 blastospores per ml
The minimum inhibitory concentration reported in Table I was obtained, and further confirmed as reported in Table II, by the methods described in the following Example IV.
as §1, §2

[3] = critical micelle concentration in PBS by molar absorptivity at 409 nm; format: physicochemical; conditions: PBS (pH 7.4), 37° C.
Excerpt: In its monomeric state, Amphotericin B has a characteristic absorption band at 409 nm; upon aggregation, however, its apparent molar absorptivity decreases in magnitude [see Biochemistry 30:5707 (1991)]. Thus, by measuring its molar absorptivity as a function of the reciprocal of the macrolide concentration, one can estimate the critical micelle concentration. This can be shown mathematically by allowing T, m and P to represent the total, monomeric, and micellar concentrations (i.e. the concentration of the drug that is present in micellar form) of the macrolide, respectively, and if ε represents the apparent molar absorptivity and εm and εp are the molar absorptivity for the monomeric and micellar components, respectively, then it can be shown that ε=εp +(εm -εp)m/T. At concentrations in excess of the critical micelle concentration, m is a constant and ε is inversely proportional to T.
Using the method described previously, the critical micelle concentrations for Amphotericin B and the conjugates described in the preceding examples were determined and are reported in Table I describing the aggregation, antifungal and hemolytic properties of […] macrolide antibiotics (in μM amounts) according to the present invention.
^a critical micelle concentration was determined in PBS (pH 7.4) at […]

solubility in water = format: physicochemical
fungal organisms = conditions: compared with Amphotericin B; cited from earlier work
mammalian cells = conditions: compared with Amphotericin B; cited from earlier work
[4] = in solution; literature; cited from earlier work
[5] = tested on: Candida albicans (isolate NIH A); test: survival of mice infected with Candida albicans (Example V); format: in vivo, Candida albicans in ICR mice; conditions: i.p. once per day for ten days, Example II 30 mg/kg, Amphotericin B 1 mg/kg
Excerpt: Ten immunocompetent ICR mice weighing 30 g each in three groups were inoculated intravenously with 3.2×10^6 colony forming units of Candida albicans (isolate NIH A) per mouse.

[6] = tested on: Histoplasma capsulatum, Cryptococcus neoformans, and several species of Candida, including C. glabrata and C. albicans; conditions: cited from earlier work
human red blood cells = test: hemolysis, 50% release of hemoglobin from human red blood cells; conditions: hemoglobin release from human red blood cells
[7] = C. neoformans (1), 37° C., read-out: minimum inhibitory concentration
[8] = C. neoformans (2), 37° C., read-out: minimum inhibitory concentration
[9] = read-out: minimum inhibitory concentration, C. neofornams (3), 37° C.
[10] = C. albicans (1), read-out: minimum inhibitory concentration
[11] = C. albicans (2), read-out: minimum inhibitory concentration
[12] = C. albicans (3), read-out: minimum inhibitory concentration
[13] = three strains of Candida albicans, yeast nitrogen base-glucose, 1 × 10^4 blastospores per ml, read-out: MIC (minimum inhibitory concentration)

Row | SMILES | MIC (Aspergillus fumigatus; A. fumigatus (1)) [µg/mL] | MIC (Aspergillus fumigatus; A. fumigatus (2)) [µg/mL] | MIC (Aspergillus fumigatus; A. fumigatus (3)) [µg/mL] | HC50 at 1 h (in vitro) [µM] | EC50 (Candida albicans [1]) [nM] | MIC (Cryptococcus neoformans; [7]) [µg/mL] | MIC (Cryptococcus neoformans; [8]) [µg/mL] | MIC (Cryptococcus neoformans; [9]) [µg/mL] | MIC (Candida albicans [2]; [10]) [µg/mL] | MIC (Candida albicans [2]; [11]) [µg/mL] | MIC (Candida albicans [2]; [12]) [µg/mL] | MIC (Candida albicans [2]; [13]) [µM] | cmc (critical micelle concentration) [3] [µM] | further results
1 | COCCNC(=O)[C@H]1[C@@H]2C[C@@H](O[C@@H]3O[C@H](C)[C@@H](O)[C@H](N)[C@@H]3O)/C=C/C=C/C=C/C=C/C=C/C=C/C=C/[C@H](C)[C@@H](O)[C@@H](C)[C@H](C)OC(=O)C[C@H](O)C[C@H](O)CC[C@@H](O)[C@H](O)C[C@H](O)C[C@](O)(C[C@@H]1O)O2 [Example I] | 3.2 (≈ 3.26 µM) | 3.2 (≈ 3.26 µM) | 1.6 (≈ 1.63 µM) | 7.9 | 800 | 1.6 (≈ 1.63 µM) | 3.2 (≈ 3.26 µM) | 0.8 (≈ 0.815 µM) | 1.6 | 1.6 | 1.6 | 1.6 | 4.4 | solubility (solubility in water): < 10 µg/mL
2 | C[C@@H]1[C@H](O)[C@@H](C)/C=C/C=C/CC/C=C/C=C/C=C/C=C/C(O[C@H]2O[C@H](C)[C@@H](O)[C@H](N)[C@@H]2O)CC2O[C@](O)(CC(O)C(O)CCC(O)CC(O)CC(O)CC(=O)O[C@H]1C)CC(O)C2C(=O)O (stereo partly shown) [Nystatin] |  |  |  |  |  |  |  |  |  |  |  |  |  | potency against fungal organisms (fungal organisms): somewhat lower in potency against fungal organisms as compared with Amphotericin B; toxicity toward mammalian cells (mammalian cells): may be far less toxic toward mammalian cells
3 | C[C@@H]1[C@H](O)[C@@H](C)/C=C/C=C/C=C/C=C/C=C/C=C/C=C/[C@H](O[C@@H]2O[C@H](C)[C@@H](O)[C@H](N)[C@@H]2O)C[C@@H]2O[C@](O)(C[C@@H](O)C[C@@H](O)[C@H](O)CC[C@@H](O)C[C@@H](O)CC(=O)O[C@H]1C)C[C@H](O)[C@H]2C(=O)O [Amphotericin B, reference compound] | 0.8 (≈ 0.866 µM) | 1.6 (≈ 1.73 µM) | 0.8 (≈ 0.866 µM) | 1.8 | 100 | 0.8 (≈ 0.866 µM) | 0.8 (≈ 0.866 µM) | 0.8 (≈ 0.866 µM) | 1.6 | 1.6 | 1.6 | 1.7 | 1.1 | critical micelle concentration [4]: very low critical micelle concentration; percent survival ([5]; day 2 post-infection): 100%; percent survival ([5]; day 3 post-infection): 100%; percent survival ([5]; day 4 post-infection): 100%; percent survival ([5]; day 5 post-infection): 100%; percent survival ([5]; day 6 post-infection): 100%; percent survival ([5]; day 7 post-infection): 90%; percent survival ([5]; day 30 post-infection): 90%; sensitivity to Amphotericin B in vitro [6]: 0.03 to 1.0 µg/mL; solubility in water (solubility in water; similar to Example I product (<10 μg/ml)): low solubility; concentration needed for hemolysis relative to critical micelle concentration (human red blood cells): must be greater than their critical micelle concentration

Reference: patent US5606038A, “Amphiphilic polyene macrolide antibiotic compounds” (Competitive Technologies, Inc., priority 1995, dated 1997)
